Test results as given in BindingDB's records for doi:10.1021/jm030810w (Glaxosmithkline, 2003).

Target: Cytomegalovirus protease/assemblin (Human cytomegalovirus)
Experiment: Potency against human cytomegalovirus protease in HCMV pNA assay

Ki | Compound
41 nM | CC(C)c1ccc(NC(=O)N2CCC[C@H]2C(=O)N2CC[C@H]3[C@H]2[C@H](C)C(=O)N3c2nc3c(Cl)cccc3s2)cc1 [(S)-2-[(3aS,6S,6aR)-4-(4-Chloro-benzothiazol-2-yl)-6-methyl-5-oxo-hexahydro-pyrrolo[3,2-b]pyrrole-1-carbonyl]-pyrrolidine-1-carboxylic acid (4-isopropyl-phenyl)-amide]
10 nM | CC(C)c1ccc(NC(=O)N2CCC[C@H]2C(=O)N2CC[C@H]3[C@H]2[C@H](C)C(=O)N3c2nc3cc(S(=O)(=O)C(F)F)ccc3s2)cc1 [(S)-2-{(3aS,6S,6aR)-4-[5-(Difluoro-methanesulfonyl)-benzothiazol-2-yl]-6-methyl-5-oxo-hexahydro-pyrrolo[3,2-b]pyrrole-1-carbonyl}-pyrrolidine-1-carboxylic acid (4-isopropyl-phenyl)-amide]
17 nM | CC(C)c1ccc(NC(=O)N2CCC[C@H]2C(=O)N2CC[C@H]3[C@H]2[C@H](C)C(=O)N3c2nc3ccc(F)cc3s2)cc1 [(S)-2-[(3aS,6S,6aR)-4-(6-Fluoro-benzothiazol-2-yl)-6-methyl-5-oxo-hexahydro-pyrrolo[3,2-b]pyrrole-1-carbonyl]-pyrrolidine-1-carboxylic acid (4-isopropyl-phenyl)-amide]
22 nM | COc1ccc2sc(N3C(=O)[C@@H](C)[C@@H]4[C@@H]3CCN4C(=O)[C@@H]3CCCN3C(=O)Nc3ccc(C(C)C)cc3)nc2c1 [(S)-2-[(3aS,6S,6aR)-4-(5-Methoxy-benzothiazol-2-yl)-6-methyl-5-oxo-hexahydro-pyrrolo[3,2-b]pyrrole-1-carbonyl]-pyrrolidine-1-carboxylic acid (4-isopropyl-phenyl)-amide]
